Experimental data published in ChEMBL document CHEMBL5230095, “Advances in research of spirodienone and its derivatives: Biological activities and synthesis methods” (Eur J Med Chem, 2020).
Values after ≈ are worked out from the molar mass of the structure shown.

Tests used:
[1] = (§1) Cytotoxicity against MDCK cells; format: toxicity, cell-based, Canis lupus familiaris; settings: dog, MDCK cells; read-out: TC50 (the source's name)
[2] = in vitro; settings: dog, MDCK cells, TI
Description: Therapeutic index, ratio of TC50 for MDCK cells to IC50 for antiviral activity against influenza A virus (A/Hanfang/359/95(H3N2))

[3] = test system: Influenza A virus; assay: microbe, parasite or virus in culture; settings: H3N2, MDCK
Description: (§2) Antiviral activity against influenza A virus (A/Hanfang/359/95(H3N2)) infected in MDCK cells

[4] = test system: Plasmodium falciparum; assay: Antimalarial activity against Plasmodium falciparum 3D7; format: functional, organism-based
[5] = test system: Jurkat; assay: Cytotoxicity against human Jurkat cells; format: functional, cell-based
[6] = test system: K562; assay: Cytotoxicity against human K562 cells; format: functional, cell-based
[7] = test system: Staphylococcus aureus; assay: Antibacterial activity against Staphylococcus aureus; format: functional
[8] = test system: A549; assay: Antiproliferative activity against human A549 cells; format: functional, cell-based
[9] = test system: SW480; assay: Antiproliferative activity against human SW480 cells; format: functional, cell-based
[10] = test system: SMMC-7721; assay: Antiproliferative activity against human SMMC-7721 cells; format: functional, cell-based
[11] = test system: HL-60; assay: Antiproliferative activity against human HL-60 cells; format: functional, cell-based
[12] = test system: HeLa; assay: Antiproliferative activity against human HeLa cells; format: functional, cell-based
[13] = test system: MDA-MB-231; assay: Antiproliferative activity against human MDA-MB-231 cells; format: functional, cell-based
[14] = biological target: DNA polymerase alpha catalytic subunit (Homo sapiens, UniProt P09884); assay: Inhibition of DNA polymerase alpha (unknown origin)
[15] = Antiinflammatory activity in human polymorphonuclear neutrophils assessed as reduction in LPS-stimulated IL-8 release; format: functional, Polymorphonuclear neutrophil; parameters: scale not given: the % may be the effect or the level left
[16] = Antiinflammatory activity in human polymorphonuclear neutrophils assessed as reduction in LPS-stimulated IL-1beta release; format: functional, Polymorphonuclear neutrophil; parameters: scale not given: the % may be the effect or the level left
[17] = Antiinflammatory activity in human polymorphonuclear neutrophils assessed as reduction in LPS-stimulated TNFalpha release; format: functional, Polymorphonuclear neutrophil; parameters: scale not given: the % may be the effect or the level left
[18] = test system: MCF7; assay: Antiproliferative activity against human MCF7 cells; format: functional, cell-based
[19] = test system: Enterococcus faecalis; assay: Antibacterial activity against Enterococcus faecalis; format: functional
[20] = test system: Streptococcus pneumoniae; assay: Antibacterial activity against Streptococcus pneumoniae; format: functional
[21] = Inhibition of yeast pre-mRNA splicing; parameters: species or system Saccharomyces cerevisiae
[22] = test system: SF-268; assay: Antiproliferative activity against human SF-268 cells; format: functional, cell-based
[23] = test system: KB; assay: Antiproliferative activity against human KB cells; format: functional, cell-based
[24] = test system: NCI-H460; assay: Antiproliferative activity against human NCI-H460 cells; format: functional, cell-based
[25] = biological target: Neutrophil elastase (Homo sapiens, UniProt P08246); assay: Inhibition of human neutrophil elastase activity assessed as reduction in elastase release
[26] = test system: MDCK; assay: as §1; format: toxicity, cell-based, Canis lupus familiaris; settings: dog, mdck; read-out: TC50 (the source's name)
[27] = test system: Influenza A virus; settings: mdck
Description: as §2

Sequence of DNA polymerase alpha catalytic subunit (P09884 whole entry): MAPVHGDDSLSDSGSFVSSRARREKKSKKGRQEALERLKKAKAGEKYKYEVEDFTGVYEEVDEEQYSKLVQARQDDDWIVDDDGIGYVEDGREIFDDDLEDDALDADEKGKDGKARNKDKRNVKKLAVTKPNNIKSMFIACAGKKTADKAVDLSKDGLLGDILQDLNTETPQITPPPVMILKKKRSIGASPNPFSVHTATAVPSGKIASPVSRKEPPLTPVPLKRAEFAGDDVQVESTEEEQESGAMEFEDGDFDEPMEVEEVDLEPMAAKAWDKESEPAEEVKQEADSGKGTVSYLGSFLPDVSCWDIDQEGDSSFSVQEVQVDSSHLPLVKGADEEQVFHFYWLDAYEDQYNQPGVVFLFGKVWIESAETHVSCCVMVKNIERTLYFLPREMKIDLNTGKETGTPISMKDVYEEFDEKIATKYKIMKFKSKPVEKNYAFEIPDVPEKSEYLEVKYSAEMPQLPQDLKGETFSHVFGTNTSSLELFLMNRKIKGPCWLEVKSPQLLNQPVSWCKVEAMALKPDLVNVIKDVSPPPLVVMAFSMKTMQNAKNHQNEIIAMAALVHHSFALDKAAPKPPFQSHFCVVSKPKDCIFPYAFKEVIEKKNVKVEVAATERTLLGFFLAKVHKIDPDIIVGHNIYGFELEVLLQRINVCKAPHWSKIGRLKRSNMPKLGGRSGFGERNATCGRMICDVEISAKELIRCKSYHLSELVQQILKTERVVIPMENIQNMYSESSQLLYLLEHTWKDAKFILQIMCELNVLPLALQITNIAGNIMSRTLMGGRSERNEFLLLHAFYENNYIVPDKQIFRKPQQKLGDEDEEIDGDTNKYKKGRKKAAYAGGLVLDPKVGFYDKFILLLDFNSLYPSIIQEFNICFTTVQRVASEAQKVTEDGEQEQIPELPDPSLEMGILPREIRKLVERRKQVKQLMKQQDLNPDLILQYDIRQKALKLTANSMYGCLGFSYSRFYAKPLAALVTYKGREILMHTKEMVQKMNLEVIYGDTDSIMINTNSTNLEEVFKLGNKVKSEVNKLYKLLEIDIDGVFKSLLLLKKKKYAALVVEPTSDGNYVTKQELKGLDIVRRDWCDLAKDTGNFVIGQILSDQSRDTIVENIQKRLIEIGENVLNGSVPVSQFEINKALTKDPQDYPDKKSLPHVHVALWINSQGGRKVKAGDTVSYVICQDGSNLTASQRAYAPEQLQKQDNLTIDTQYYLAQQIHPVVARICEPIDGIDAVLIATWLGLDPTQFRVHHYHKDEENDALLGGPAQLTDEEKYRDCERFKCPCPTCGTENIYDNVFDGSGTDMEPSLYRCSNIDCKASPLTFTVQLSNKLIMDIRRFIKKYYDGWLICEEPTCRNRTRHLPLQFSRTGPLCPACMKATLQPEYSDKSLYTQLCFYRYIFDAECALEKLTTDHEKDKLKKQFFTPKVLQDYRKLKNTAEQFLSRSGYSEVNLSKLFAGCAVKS
Sequence of Neutrophil elastase (P08246 whole entry): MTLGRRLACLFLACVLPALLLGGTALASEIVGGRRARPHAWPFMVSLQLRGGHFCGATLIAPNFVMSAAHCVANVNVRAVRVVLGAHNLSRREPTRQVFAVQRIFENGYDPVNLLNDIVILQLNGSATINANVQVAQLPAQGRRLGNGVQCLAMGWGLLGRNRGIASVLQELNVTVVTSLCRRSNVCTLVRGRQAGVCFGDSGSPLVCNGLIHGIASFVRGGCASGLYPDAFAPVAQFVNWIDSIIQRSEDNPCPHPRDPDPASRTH

## COC1=CC(=O)c2ccc(=O)oc2[C@]12[C@H](c1c(OC)cc(OC)c3ccc(=O)oc13)[C@H]1[C@H](c3c(OC)cc(OC)c4ccc(=O)oc34)C=C(C)C[C@]1(C)C[C@@H]2C=C(C)C
[1]
  CC50: 77.6 µM
[2]
  selectivity ratio: 7.9
[3]
  IC50: 8.62 µM

## CCCCCCCCCCCCCC(=O)C1C(=O)N(Cc2ccccc2)C12C=CC(=O)C=C2 (stereo unspecified)
[4]; Plasmodium falciparum, 3D7
  IC50: 1.35 µM
[5]; Homo sapiens, Jurkat
  IC50: 2.88 µM
[6]; Homo sapiens, K562
  IC50: 5.47 µM

## COC1=CC(=O)c2ccc(=O)oc2[C@]12[C@H](C=C(C)C)C[C@]1(C)CC(C)=C[C@H](c3c(OC)cc(OC)c4ccc(=O)oc34)[C@H]1[C@@H]2c1c(OC)cc(OC)c2ccc(=O)oc12
[1]
  CC50: 57.7 µM
[2]
  selectivity ratio: 3.3
[3]
  IC50: 17.5 µM

## C/C(=C\C=C/[C@@H](C)/C=C(\C)C(=O)C1[C@@H]2[C@@H](CC(C)C)C(=O)N[C@@]23C[C@]1(O)c1cc(O)c(C)cc1C3=O)C(=O)O (stereo partly specified)
[7]
  MIC: 31.2 µg/mL (≈ 58.2 µM)

## COC1=C[C@@]23CCN(C)[C@@H](Cc4c(CN5CCc6cc(OC)c(O)cc6[C@H]5Cc5ccc(O)cc5)cc(OC)c(O)c42)C3=CC1=O
[8]
  IC50: > 40000 µM
[9]
  IC50: > 40000 µM
[10]
  IC50: > 40000 µM
[11]
  IC50: > 40000 µM

## Cc1cc(C)c2c(c1)OCC(=O)N2c1nc(-c2ccc(Cl)cc2Cl)nn1-c1ccccc1
[12]
  IC50: 25.2 µM
[13]
  IC50: 2.85 µM

## COc1cc(O)c2c(c1)C1(C=C(OC(C)=O)C(=O)C=C1C)OC2=O (stereo unspecified)
[14]
  IC50: 28 µM

## O=C1C=CC2(C=C1)CCc1cc(O)cc(O[C@@H]3C[C@H](CO[C@@H]4OC[C@](O)(COC(=O)/C=C/c5ccc(O)c(O)c5)[C@@H]4O)[C@@H](O)[C@H](O)[C@H]3O)c12
[15]
  Activity: 28%
[16]
  Activity: 90%
[17]
  Activity: 20%

## O=C1C=CC2(C=C1)CCc1cc(O)cc(O[C@@H]3C[C@H](CO)[C@@H](O)[C@H](O)[C@H]3O)c12
[15]
  Activity: 70%
[16]
  Activity: 105%
[17]
  Activity: 38%

## O=C1C=CC2(C=C1)OCC(=O)N2c1nc(-c2cccs2)nn1-c1ccccc1
[12]
  IC50: 0.0453 µM
[8]
  IC50: 0.0252 µM
[13]
  IC50: 0.0008 µM
[18]
  IC50: 0.00411 µM

## CC(C)=CCC[C@]1(C)OC2=C(Cl)C(=O)c3c(O)cc(O)cc3[C@@]23CC(=C(C)C)C[C@@H]13
[19]
  MIC: 1 µg/mL (≈ 2.33 µM)
[7]
  MIC: 1 µg/mL (≈ 2.33 µM)
[20]
  MIC: 8 µg/mL (≈ 18.6 µM)

## COC1=CC(=O)c2ccc(=O)oc2[C@@]12[C@H](C=C(C)C)C[C@]1(C)CC(C)=C[C@H](c3c(OC)cc(OC)c4ccc(=O)oc34)[C@H]1[C@@H]2c1c(OC)cc(OC)c2ccc(=O)oc12
[1]
  CC50: 77.6 µM
[2]
  selectivity ratio: 6.9
[3]
  IC50: 11.1 µM

## C#CCCCCCCC(=O)C1C(=O)N(Cc2ccccc2)C12C=CC(=O)C=C2 (stereo unspecified)
[4]; Plasmodium falciparum, 3D7
  IC50: 7.7 µM
[5]; Homo sapiens, Jurkat
  IC50: 7.4 µM
[6]; Homo sapiens, K562
  IC50: 15.3 µM

## COC1=CC2(C=CC1=O)CCC(=O)O2 (stereo unspecified)
[21]
  IC50: 3000 µM

## COc1cc(OC(C)=O)c2c(c1)C1(C=C(OC(C)=O)C(=O)C=C1C)OC2=O (stereo unspecified)
[14]
  IC50: 0.68 µM

## C/C1=C/[C@@H](C)/C=C(\C)C(=O)[C@@H](C)[C@@H]2[C@@H](C)C(=O)N[C@@]23C[C@]24O[C@](C)(C(=O)c5c(O)c(C)cc(c52)C3=O)C14 (stereo partly specified)
[7]
  MIC: 62.5 µg/mL (≈ 124 µM)

## COC(=O)[C@@]1(C2C=CC(=O)C=C2)c2cc(O)cc(O)c2[C@@H](c2ccc(O)cc2)C(=O)c2cc(O)cc(O)c21
[22]
  IC50: 29.2 µM
[23]
  IC50: 33.2 µM
[12]
  IC50: 25.7 µM
[24]
  IC50: 32.7 µM
[18]
  IC50: 28 µM

## COc1cc2c(c3c1CCC(c1ccccc1)O3)C1C3C(c4ccc(O)c(C)c4OC)C(C(O)(OC)c4ccccc4)C14C(C=CC(=O)C4OC)OC3(c1ccccc1)O2 (stereo unspecified)
[25]
  IC50: 6.53 µM

## CC(C)=CCC[C@]1(C)OC2=C(Cl)C(=O)C=C[C@@]23CC(=C(C)C)C[C@@H]13
[19]
  MIC: > 64 µg/mL
[7]
  MIC: > 64 µg/mL
[20]
  MIC: > 64 µg/mL

## COC1=C[C@@H]2[C@@H]3Cc4c(CN5CCc6cc(OC)c(OC)c7c6[C@@H]5CC75C=CC(=O)C=C5)cc(OC)c(O)c4[C@]2(CCN3C)CC1=O
[8]
  IC50: 18500 µM
[9]
  IC50: 18300 µM
[10]
  IC50: 17100 µM
[11]
  IC50: 17400 µM

## O=C1CCC2(C=CC(=O)C(NC(=O)c3ccccc3)=C2)O1 (stereo unspecified)
[21]
  IC50: 600 µM

## CC1=C/[C@@H](C)/C=C(\C)[C@]2(O)[C@H](C)[C@@H]3[C@@H](C(C)C)C(=O)N[C@]34C(=O)c3cc(C)c(O)c(c3C(=O)[C@@H]42)C(=O)\C(C)=C\1
[7]
  MIC: 31.2 µg/mL (≈ 58.7 µM)

## CCCCCCCCCCCCC/C(O)=C1\C(=O)N(Cc2ccccc2)CC12C=CC(=O)C=C2
[4]; Plasmodium falciparum, 3D7
  IC50: 2.29 µM
[5]; Homo sapiens, Jurkat
  IC50: 1.42 µM
[6]; Homo sapiens, K562
  IC50: 1.73 µM

## COc1cc(O)cc2c1C(=O)C(Cl)=C1O[C@@](C)(CCC=C(C)C)[C@@H]3CC(=C(C)C)C[C@@]123
[19]
  MIC: > 64 µg/mL
[7]
  MIC: > 64 µg/mL
[20]
  MIC: > 64 µg/mL

## COC1=CC(=O)c2ccc(=O)oc2[C@@]12[C@H](c1c(OC)cc(OC)c3ccc(=O)oc13)[C@H]1[C@H](c3c(OC)cc(OC)c4ccc(=O)oc34)C=C(C)C[C@]1(C)C[C@@H]2C=C(C)C
[1]
  CC50: 19.2 µM
[2]
  selectivity ratio: 1.9
[3]
  IC50: 9.86 µM

## CC(=O)NC1=CC2(C=CC1=O)CC(NS(=O)(=O)c1ccc(C)cc1)C(=O)O2 (stereo unspecified)
[21]
  IC50: 1700 µM

## Cc1ccc(S(=O)(=O)NC2CC3(C=CC(=O)C(NC(=O)c4ccccc4)=C3)OC2=O)cc1 (stereo unspecified)
[21]
  IC50: 700 µM

## O=C1C=CC(=C2C(=O)c3cc(O)cc4c3[C@@](c3ccc(O)cc3)(C(=O)O4)c3cc(O)cc(O)c32)C=C1
[22]
  IC50: > 100 µM
[23]
  IC50: > 100 µM
[12]
  IC50: > 100 µM
[24]
  IC50: > 100 µM
[18]
  IC50: 99 µM

## CC(=O)NC1=CC2(C=CC1=O)CCC(=O)O2 (stereo unspecified)
[21]
  IC50: 800 µM

## COC1=CC(=O)c2ccc(=O)oc2C12C(C=C(C)C)CC1(C)CC(C)=CC(c3c(OC)cc(OC)c4ccc(=O)oc34)C1C2c1c(OC)cc(OC)c2ccc(=O)oc12 (racemic; form 1)
[26]
  CC50: 6.42 µM
[3]
  IC50: 3.13 µM

## COC1=CC(=O)c2ccc(=O)oc2C12C(C=C(C)C)CC1(C)CC(C)=CC(c3c(OC)cc(OC)c4ccc(=O)oc34)C1C2c1c(OC)cc(OC)c2ccc(=O)oc12 (racemic; form 2)
[26]
  CC50: 25.9 µM
[27]
  IC50: 2.87 µM

## CCCCCCCCCCCCN1C(=O)C(C2(OC)CCC3(C=CC(=O)C=C3)O2)C12C=CC(=O)C=C2 (stereo in doubt; 28)
[4]; Plasmodium falciparum, 3D7
  IC50: 1.68 µM
[5]; jurkat
  IC50: 0.35 µM
[6]; k562
  IC50: 0.62 µM

## CCCCCCCCCCCCN1C(=O)C(C2(OC)CCC3(C=CC(=O)C=C3)O2)C12C=CC(=O)C=C2 (stereo in doubt; 29)
[4]
  IC50: 0.91 µM
[5]; jurkat
  IC50: 0.06 µM
[6]; k562
  IC50: 0.18 µM

## C#CCCCCCCCCCCCN1C(=O)C(C2(OCC)CCC3(C=CC(=O)C=C3)O2)C12C=CC(=O)C=C2 (stereo in doubt; 30)
[4]; Plasmodium falciparum, 3D7
  IC50: 1.72 µM
[5]; Homo sapiens, Jurkat
  IC50: 0.14 µM
[6]; Homo sapiens, K562
  IC50: 0.32 µM

## C#CCCCCCCCCCCCN1C(=O)C(C2(OCC)CCC3(C=CC(=O)C=C3)O2)C12C=CC(=O)C=C2 (stereo in doubt; 31)
[4]
  IC50: 1.41 µM
[5]; jurkat
  IC50: 0.15 µM
[6]; k562
  IC50: 0.36 µM

## CCOC(=O)C1=C[C@@H](OC(CC)CC)[C@H](NC(C)=O)[C@@H](N)C1 [OSELTAMIVIR]
[1]
  CC50: 3070 µM
[2]
  selectivity ratio: 910
[3]
  IC50: 3.38 µM

## O=c1c(O)c(-c2ccc(O)c(O)c2)oc2cc(O)cc(O)c12 [QUERCETIN]
[15]
  Activity: 18%
[16]
  Activity: 4%
[17]
  Activity: 28%

## NC(=O)c1ncn([C@@H]2O[C@H](CO)[C@@H](O)[C@H]2O)n1 [RIBAVIRIN]
[1]
  CC50: 4770 µM
[2]
  selectivity ratio: 771
[3]
  IC50: 6.19 µM
